Tested on: 931267-113-T-J1-PDC KRAS spheroid with HUVEC/MSC, viability
Assay: Anticancer human tumor 931267-113-T-J1-PDC patient-derived colon adenocarcinoma cell line growth inhibition [KRAS2]
Settings: for IC50: curve of first compound; for viability, T/C: stronger effect = lower value; active = viability on the fitted dose curve at most 10% of control; inactive = the rest
Summary of the method: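 Combination screen of spheroid viability in tumor-cell co-cultures with endothelial (HUVEC) and mesenchymal stem cell stroma. Each agent was tested in half-log dilutions, topping at clinical Cmax or at 10 microM without a known Cmax.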

[1] = second compound 0.1 µM, first compound 0.00316 µM
[2] = second compound 0.1 µM, first compound 0.01 µM
[3] = second compound 0.1 µM, first compound 0.0316 µM
[4] = second compound 0.1 µM, first compound 0.1 µM
[5] = second compound 0.1 µM, first compound 0.316 µM
[6] = second compound 0.1 µM, first compound 1 µM
[7] = second compound 0.316 µM, first compound 0.00316 µM
[8] = second compound 0.316 µM, first compound 0.01 µM
[9] = second compound 0.316 µM, first compound 0.0316 µM
[10] = second compound 0.316 µM, first compound 0.1 µM
[11] = second compound 0.316 µM, first compound 0.316 µM
[12] = second compound 0.316 µM, first compound 1 µM
[13] = second compound 1 µM, first compound 0.00316 µM
[14] = second compound 1 µM, first compound 0.01 µM
[15] = second compound 1 µM, first compound 0.0316 µM
[16] = second compound 1 µM, first compound 0.1 µM
[17] = second compound 1 µM, first compound 0.316 µM
[18] = second compound 1 µM, first compound 1 µM
[19] = second compound 3.16 µM, first compound 0.00316 µM
[20] = second compound 3.16 µM, first compound 0.01 µM
[21] = second compound 3.16 µM, first compound 0.0316 µM
[22] = second compound 3.16 µM, first compound 0.1 µM
[23] = second compound 3.16 µM, first compound 0.316 µM
[24] = second compound 3.16 µM, first compound 1 µM
[25] = second compound 10 µM, first compound 0.0316 µM
[26] = second compound 10 µM, first compound 0.1 µM
[27] = second compound 10 µM, first compound 0.316 µM
[28] = second compound 10 µM, first compound 1 µM
[29] = second compound 0.1 µM, first compound 3.16 µM
[30] = second compound 0.1 µM, first compound 10 µM
[31] = second compound 0.316 µM, first compound 3.16 µM
[32] = second compound 0.316 µM, first compound 10 µM
[33] = second compound 1 µM, first compound 3.16 µM
[34] = second compound 1 µM, first compound 10 µM
[35] = second compound 3.16 µM, first compound 3.16 µM
[36] = second compound 3.16 µM, first compound 10 µM
[37] = second compound 10 µM, first compound 3.16 µM
[38] = second compound 10 µM, first compound 10 µM
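Note: compound exposure lasted 7 days before the readout.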
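Throughout, for viability, T/C: 100% = DMSO vehicle control viability.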

CCN1CCN(Cc2ccc(Nc3ncc(F)c(-c4cc(F)c5nc(C)n(C(C)C)c5c4)n3)nc2)CC1 + CC1OCC2(CCN(c3cnc(Sc4ccnc(N)c4Cl)c(N)n3)CC2)C1N
inactive: viability, T/C [1] 75.4% | viability, T/C [2] 58.2% | viability, T/C [3] 43.5% | viability, T/C [4] 51.4% | viability, T/C [5] 53.7% | viability, T/C [6] 36.9% | viability, T/C [7] 63% | viability, T/C [8] 91.7% | viability, T/C [9] 50.3% | viability, T/C [10] 43.3% | viability, T/C [11] 45.1% | viability, T/C [12] 37.5% | viability, T/C [13] 69.5% | viability, T/C [14] 82% | viability, T/C [15] 53.1% | viability, T/C [16] 41.4% | viability, T/C [17] 42% | viability, T/C [18] 35.3% | viability, T/C [19] 71.5% | viability, T/C [20] 70.2% | viability, T/C [21] 54.4% | viability, T/C [22] 43.6% | viability, T/C [23] 40.8% | viability, T/C [24] 23.8% | viability, T/C (second compound 10 µM, first compound 0.00316 µM) 70.6% | viability, T/C (second compound 10 µM, first compound 0.01 µM) 79.1% | viability, T/C [25] 52.9% | viability, T/C [26] 58.7% | viability, T/C [27] 49% | viability, T/C [28] 9.83%
41.2 nM: IC50 (second compound 1 µM)
68.8 nM: IC50 (second compound 3.16 µM)
27.3 nM: IC50 (second compound 0.1 µM)
201 nM: IC50 (second compound 10 µM)
32.8 nM: IC50 (second compound 0.316 µM)

CCNC(=O)CC1N=C(c2ccc(Cl)cc2)c2cc(OC)ccc2-n2c(C)nnc21 (stereo unspecified)
inactive: viability, T/C (compound 0.0316 µM) 92.4% [middle of 5 runs] | viability, T/C (compound 0.1 µM) 83% [middle of 5 runs] | viability, T/C (compound 0.316 µM) 72.3% [middle of 5 runs] | viability, T/C (compound 1 µM) 60.5% [middle of 5 runs] | viability, T/C (compound 3.16 µM) 47.1% [middle of 5 runs] | viability, T/C (compound 10 µM) 40.2% [middle of 5 runs]

CCNC(=O)CC1N=C(c2ccc(Cl)cc2)c2cc(OC)ccc2-n2c(C)nnc21 (stereo unspecified) + C=CC(=O)N1CCN(c2nc(=O)n(-c3c(C)ccnc3C(C)C)c3nc(-c4c(O)cccc4F)c(F)cc23)C(C)C1
4480 nM: IC50 (second compound 1 µM)
2650 nM: IC50 (second compound 0.1 µM)
4870 nM: IC50 (second compound 0.316 µM)
inactive: viability, T/C [3] 103% | viability, T/C [4] 97.6% | viability, T/C [5] 80.8% | viability, T/C [6] 68.5% | viability, T/C [29] 43% | viability, T/C [30] 40.8% | viability, T/C [9] 88.4% | viability, T/C [10] 81.2% | viability, T/C [11] 68.3% | viability, T/C [12] 59.7% | viability, T/C [31] 55% | viability, T/C [32] 44.5% | viability, T/C [15] 120% | viability, T/C [16] 82.8% | viability, T/C [17] 84.4% | viability, T/C [18] 64.1% | viability, T/C [33] 56.1% | viability, T/C [34] 40.8% | viability, T/C [21] 101% | viability, T/C [22] 92.7% | viability, T/C [23] 78.6% | viability, T/C [24] 65.3% | viability, T/C [35] 59.1% | viability, T/C [36] 51.8% | viability, T/C [25] 94.5% | viability, T/C [26] 102% | viability, T/C [27] 82.6% | viability, T/C [28] 74.6% | viability, T/C [37] 50.7% | viability, T/C [38] 43%
> 10000 nM: IC50 (second compound 3.16 µM)
4230 nM: IC50 (second compound 10 µM)

CC(=O)Nc1cccc(-n2c(=O)n(C3CC3)c(=O)c3c(Nc4ccc(I)cc4F)n(C)c(=O)c(C)c32)c1 + C=CC(=O)N1CCN(c2nc(OCC3CCCN3C)nc3c2CCN(c2cccc4cccc(C)c24)C3)CC1CC#N
inactive: viability, T/C (second compound 0.0316 µM, first compound 0.0001 µM) 98.9% | viability, T/C (second compound 0.0316 µM, first compound 0.000316 µM) 78% | viability, T/C (second compound 0.0316 µM, first compound 0.001 µM) 69.3% | viability, T/C (second compound 0.0316 µM, first compound 0.00316 µM) 54.7% | viability, T/C (second compound 0.0316 µM, first compound 0.01 µM) 60.3% | viability, T/C (second compound 0.0316 µM, first compound 0.0316 µM) 13.2% | viability, T/C (second compound 0.1 µM, first compound 0.0001 µM) 83% | viability, T/C (second compound 0.1 µM, first compound 0.000316 µM) 82.4% | viability, T/C (second compound 0.1 µM, first compound 0.001 µM) 64.2% | viability, T/C [1] 72.6% | viability, T/C [2] 59.5% | viability, T/C (second compound 0.316 µM, first compound 0.0001 µM) 69.7% | viability, T/C (second compound 0.316 µM, first compound 0.000316 µM) 83% | viability, T/C (second compound 0.316 µM, first compound 0.001 µM) 54.9% | viability, T/C [7] 53.8% | viability, T/C [8] 42.7% | viability, T/C [9] 9.24% | viability, T/C (second compound 1 µM, first compound 0.0001 µM) 74.7% | viability, T/C (second compound 1 µM, first compound 0.000316 µM) 59.8% | viability, T/C (second compound 1 µM, first compound 0.001 µM) 45.9% | viability, T/C [13] 52.9% | viability, T/C [14] 28.2% | viability, T/C [15] 9.56%
4.45 nM: IC50 (second compound 0.316 µM)
1.48 nM: IC50 (second compound 1 µM)
active: viability, T/C [3] 8.65% | viability, T/C (second compound 3.16 µM, first compound 0.0001 µM) 0.22% | viability, T/C (second compound 3.16 µM, first compound 0.000316 µM) 0.24% | viability, T/C (second compound 3.16 µM, first compound 0.001 µM) 0.28% | viability, T/C [19] 0.24% | viability, T/C [20] 0.21% | viability, T/C [21] 0.25%
11.9 nM: IC50 (second compound 0.1 µM)
6.25 nM: IC50 (second compound 0.0316 µM)
< 0.1 nM: IC50 (second compound 3.16 µM)

COc1cc2nccc(Oc3ccc(NC(=O)C4(C(=O)Nc5ccc(F)cc5)CC4)cc3)c2cc1OC + CNCc1ccccc1-c1csc(C(C)Nc2nc(C)nc3cc(OC)c(OC)cc23)c1
inactive: viability, T/C [3] 86.3% | viability, T/C [4] 93.1% | viability, T/C [5] 107% | viability, T/C [6] 91% | viability, T/C [29] 50.1% | viability, T/C [30] 48.1% | viability, T/C [9] 85.5% | viability, T/C [10] 86.8% | viability, T/C [11] 81.9% | viability, T/C [12] 72.3% | viability, T/C [31] 27.2% | viability, T/C [32] 21.9% | viability, T/C [15] 45.3% | viability, T/C [16] 52.9% | viability, T/C [17] 39.5% | viability, T/C [18] 25.4%
< 31.6 nM: IC50 (second compound 1 µM) | IC50 (second compound 3.16 µM) | IC50 (second compound 10 µM)
active: viability, T/C [33] 0.22% | viability, T/C [34] 1.76% | viability, T/C [21] 0.08% | viability, T/C [22] 0.19% | viability, T/C [23] 0.35% | viability, T/C [24] 0.07% | viability, T/C [35] 0.04% | viability, T/C [36] 0.2% | viability, T/C [25] 0.14% | viability, T/C [26] 0.17% | viability, T/C [27] 0.13% | viability, T/C [28] 0.12% | viability, T/C [37] 0.13% | viability, T/C [38] 0.21%
3210 nM: IC50 (second compound 0.1 µM)
1770 nM: IC50 (second compound 0.316 µM)

COc1cc2nccc(Oc3ccc(NC(=O)C4(C(=O)Nc5ccc(F)cc5)CC4)cc3)c2cc1OC + COc1cc2nc(C)nc(NC(C)c3cc(N)cc(C(F)(F)F)c3)c2cc1OC1CCOC1
7320 nM: IC50 (second compound 0.1 µM)
inactive: viability, T/C [3] 105% | viability, T/C [4] 112% | viability, T/C [5] 98.2% | viability, T/C [6] 93% | viability, T/C [29] 63.8% | viability, T/C [30] 44.8% | viability, T/C [9] 111% | viability, T/C [10] 102% | viability, T/C [11] 83.1% | viability, T/C [12] 90.9% | viability, T/C [31] 51.1% | viability, T/C [32] 37.2% | viability, T/C [15] 94.6% | viability, T/C [16] 107% | viability, T/C [17] 90.6% | viability, T/C [18] 91.5% | viability, T/C [33] 45.6% | viability, T/C [34] 28.5% | viability, T/C [21] 74% | viability, T/C [22] 87% | viability, T/C [23] 74.7% | viability, T/C [24] 41.4%
< 31.6 nM: IC50 (second compound 10 µM)
2840 nM: IC50 (second compound 1 µM)
active: viability, T/C [35] 4.72% | viability, T/C [36] 0.2% | viability, T/C [25] 1.73% | viability, T/C [26] 0.3% | viability, T/C [27] 0.4% | viability, T/C [28] 1.03% | viability, T/C [37] 0.15% | viability, T/C [38] 0.23%
4890 nM: IC50 (second compound 0.316 µM)
747 nM: IC50 (second compound 3.16 µM)

From PubChem BioAssay AID1963863 (Molecular Pharmacology Branch, DTP, NCI, 2024)
